Assay results published in publication PMC10866072, “Design, synthesis, molecular modelling and biological evaluation of novel 6-amino-5-cyano-2-thiopyrimidine derivatives as potent anticancer agents against leukemia and apoptotic inducers” (Journal of Enzyme Inhibition and Medicinal Chemistry, 2024).

Legend:
[1] = tested on: MOLT-4; assay type: cell-based; conditions: Homo sapiens, one dose 10^-5 M, 48 h, read-out: % growth
[2] = tested on: SK-MEL-2; assay type: cell-based; conditions: Homo sapiens, one dose 10^-5 M, 48 h
[3] = tested on: UO-31; assay type: cell-based; conditions: Homo sapiens, UO-31, 48 h, one dose 10^-5 M, 48 h
[4] = tested on: NCI-H226; assay type: cell-based; conditions: Homo sapiens, one dose 10^-5 M, 48 h
[5] = tested on: HOP-62; assay type: cell-based; conditions: Homo sapiens, one dose 10^-5 M, 48 h
[6] = tested on: CAKI-1; assay type: cell-based; conditions: Homo sapiens, CAKI-1, 48 h, one dose 10^-5 M, 48 h
[7] = tested on: NCI-H460; assay type: cell-based; conditions: Homo sapiens, one dose 10^-5 M, 48 h, read-out: % growth
[8] = tested on: SK-MEL-5; assay type: cell-based; conditions: Homo sapiens, one dose 10^-5 M, 48 h, read-out: % growth
[9] = tested on: EKVX; assay type: cell-based; conditions: Homo sapiens, one dose 10^-5 M, 48 h
[10] = tested on: OVCAR-4; assay type: cell-based; conditions: Homo sapiens, one dose 10^-5 M, 48 h
[11] = tested on: SN12C; assay type: cell-based, human; conditions: Homo sapiens, one dose 10^-5 M, 48 h
[12] = tested on: MDA-MB-231/ATCC; assay type: cell-based; conditions: Homo sapiens, one dose 10^-5 M, 48 h
[13] = tested on: NCI/ADR-RES; assay type: cell-based; conditions: Homo sapiens, one dose 10^-5 M, 48 h
[14] = tested on: MDA-MB-435; assay type: cell-based; conditions: Homo sapiens, one dose 10^-5 M, 48 h, read-out: % growth
[15] = tested on: SF-268; assay type: cell-based; conditions: Homo sapiens, one dose 10^-5 M, 48 h, read-out: % growth
[16] = tested on: HT29; assay type: cell-based; conditions: Homo sapiens, HT-29, one dose 10^-5 M, 48 h
[17] = tested on: DU-145; assay type: cell-based; conditions: Homo sapiens, one dose 10^-5 M, 48 h
[18] = tested on: OVCAR-5; assay type: cell-based; conditions: Homo sapiens, one dose 10^-5 M, 48 h
[19] = tested on: SNB-19; assay type: cell-based; conditions: Homo sapiens, one dose 10^-5 M, 48 h, read-out: % growth
[20] = tested on: K-562; assay type: cell-based; conditions: Homo sapiens, K562, one dose 10^-5 M, 48 h
[21] = tested on: CCRF-CEM; assay type: cell-based; conditions: Homo sapiens, one dose 10^-5 M, 48 h
[22] = tested on: COLO 205; assay type: cell-based; conditions: Homo sapiens, one dose 10^-5 M, 48 h
[23] = tested on: BT-549; assay type: cell-based; conditions: Homo sapiens, one dose 10^-5 M, 48 h
[24] = tested on: SNB-75; assay type: cell-based; conditions: Homo sapiens, one dose 10^-5 M, 48 h
[25] = tested on: M14; assay type: cell-based; conditions: Homo sapiens, one dose 10^-5 M, 48 h
[26] = tested on: UACC-62; assay type: cell-based; conditions: Homo sapiens, one dose 10^-5 M, 48 h
[27] = tested on: HCC-2998; assay type: cell-based; conditions: Homo sapiens, one dose 10^-5 M, 48 h
[28] = tested on: A549/ATCC; assay type: cell-based; conditions: Homo sapiens, one dose 10^-5 M, 48 h
[29] = tested on: 786-0; assay type: cell-based; conditions: Homo sapiens, one dose 10^-5 M, 48 h
[30] = tested on: KM12; assay type: cell-based; conditions: Homo sapiens, one dose 10^-5 M, 48 h
[31] = tested on: UACC-257; assay type: cell-based; conditions: Homo sapiens, one dose 10^-5 M, 48 h
[32] = tested on: RPMI-8226; assay type: cell-based; conditions: Homo sapiens, one dose 10^-5 M, 48 h
[33] = tested on: U251; assay type: cell-based; conditions: Homo sapiens, U-251, one dose 10^-5 M, 48 h
[34] = tested on: NCI-H522; assay type: cell-based; conditions: Homo sapiens, one dose 10^-5 M, 48 h
[35] = tested on: T-47D; assay type: cell-based; conditions: Homo sapiens, T47D, one dose 10^-5 M, 48 h, read-out: % growth
[36] = tested on: HCT-15; assay type: cell-based; conditions: Homo sapiens, one dose 10^-5 M, 48 h, read-out: % growth
[37] = tested on: IGROV1; assay type: cell-based; conditions: Homo sapiens, IGROV-1, one dose 10^-5 M, 48 h, read-out: % growth
[38] = tested on: MDA-MB-468; assay type: cell-based; conditions: Homo sapiens, one dose 10^-5 M, 48 h
[39] = tested on: LOX IMVI; assay type: cell-based; conditions: Homo sapiens, one dose 10^-5 M, 48 h, read-out: % growth
[40] = tested on: SK-MEL-28; assay type: cell-based; conditions: Homo sapiens, one dose 10^-5 M, 48 h
[41] = tested on: SF-539; assay type: cell-based; conditions: Homo sapiens, one dose 10^-5 M, 48 h
[42] = tested on: OVCAR-8; assay type: cell-based; conditions: Homo sapiens, one dose 10^-5 M, 48 h
[43] = tested on: SW-620; assay type: cell-based; conditions: Homo sapiens, one dose 10^-5 M, 48 h
[44] = tested on: ACHN; assay type: cell-based; conditions: Homo sapiens, one dose 10^-5 M, 48 h
[45] = tested on: MCF7; assay type: cell-based; conditions: Homo sapiens, one dose 10^-5 M, 48 h, read-out: % growth
[46] = tested on: SK-OV-3; assay type: cell-based; conditions: Homo sapiens, one dose 10^-5 M, 48 h
[47] = tested on: HOP-92; assay type: cell-based; conditions: Homo sapiens, one dose 10^-5 M, 48 h
[48] = tested on: SF-295; assay type: cell-based; conditions: Homo sapiens, one dose 10^-5 M, 48 h
[49] = tested on: MALME-3M; assay type: cell-based; conditions: Homo sapiens, one dose 10^-5 M, 48 h
[50] = tested on: PC-3; assay type: cell-based; conditions: Homo sapiens, one dose 10^-5 M, 48 h
[51] = tested on: NCI-H23; assay type: cell-based; conditions: Homo sapiens, one dose 10^-5 M, 48 h, read-out: % growth
[52] = tested on: full NCI 60 cell lines panel
Method: 60 different human tumour cell lines-representing leukaemia, melanoma, and malignancies of the lung, colon, brain, ovary, breast, prostate, and kidney are used in the operation of this screen.
Compounds were dissolved in DMSO: glycerol (91) and were kept in a freezer at −70° C. The synthesised compounds were introduced to the culture at a single concentration of 1 0 ^−5 M and left to incubate for 48 h. A protein-binding dye called sulforhodamine B was used to measure end points (SRB).
A mean graph showing the % growth of treated cells is used to represent the one-dose data. The value provided for the One-dose assay represents growth in comparison to the no-drug control and to the number of cells at time zero. This enables the identification of lethality (values between 0 and 100) as well as growth inhibition (values less than 0). A value of 100, for instance, indicates no growth inhibition. A value of 40 would indicate 60% growth inhibition. A value of 0 indicates no net growth over the course of the experiment. A value of −40 would indicate 40% lethality.
Furthermore, the average sensitivity of all cell lines to the compound is termed as the full panel mean graph midpoints (MG-MID). The complete panel mean graph midpoints refers to the average sensitivity of all cell lines to the chemical (MG-MID). A measure of a compound’s selectivity for a given cell line is the ratio created by dividing the full panel mean graph midpoints (MG-MID) concentration by the individual subpanel MG-MID concentrations (obtained as the average sensitivity of all the cell lines in a given subpanel to the test compound).

[53] = tested on: A498; assay type: cell-based; conditions: Homo sapiens, one dose 10^-5 M, 48 h
[54] = tested on: HL-60(TB); assay type: cell-based; conditions: Homo sapiens, one dose 10^-5 M, 48 h
[55] = tested on: HCT-116; assay type: cell-based; conditions: Homo sapiens, one dose 10^-5 M, 48 h, read-out: % growth
[56] = tested on: OVCAR-3; assay type: cell-based; conditions: Homo sapiens, one dose 10^-5 M, 48 h
[57] = tested on: TK-10; assay type: cell-based; conditions: Homo sapiens, one dose 10^-5 M, 48 h
[58] = tested on: SR; assay type: cell-based; conditions: Homo sapiens, one dose 10^-5 M, 48 h
[59] = tested on: HS 578T; assay type: cell-based; conditions: Homo sapiens; one dose 10^-5 M, 48 h; HS 578T; read-out: % growth

## CN(C)c1ccc(-c2nc(S)nc(N)c2C#N)cc1 [Compound 1a]
[1]
  activity at 10 µM: 92.6%
[2]
  % growth at 10 µM: 107%
[3]
  % cell growth at 10 µM: 83.8%
[4]
  % growth at 10 µM: 96%
[5]
  % growth at 10 µM: 117%
[6]
  % growth at 10 µM: 92.4%
[7]
  activity at 10 µM: 113%
[8]
  activity at 10 µM: 88.7%
[9]
  % cell growth at 10 µM: 87.9%
[10]
  % growth at 10 µM: 101%
[11]
  % growth at 10 µM: 90.7%
[12]
  % growth at 10 µM: 96%
[13]
  cell growth percent at 10 µM: 91.2%
[14]
  activity at 10 µM: 103%
[15]
  activity at 10 µM: 104%
[16]
  % growth at 10 µM: 109%
[17]
  % growth at 10 µM: 102%
[18]
  percent cell growth at 10 µM: 108%
[19]
  activity at 10 µM: 89.9%
[20]
  % growth at 10 µM: 89.8%
[21]
  % cell growth at 10 µM: 90.9%
[22]
  % growth at 10 µM: 123%
[23]
  % cell growth at 10 µM: 85.4%
[24]
  % growth at 10 µM: 107%
[25]
  % growth at 10 µM: 102%
[26]
  % growth at 10 µM: 77.2%
[27]
  % growth at 10 µM: 105%
[28]
  % growth at 10 µM: 96.5%
[29]
  % growth at 10 µM: 87.9%
[30]
  % growth at 10 µM: 92.3%
[31]
  percent cell growth at 10 µM: 102%
[32]
  % growth at 10 µM: 80.5%
[33]
  % growth at 10 µM: 90.6%
[34]
  % growth at 10 µM: 79.7%
[35]
  activity at 10 µM: 75.6%
[36]
  activity at 10 µM: 86.4%
[37]
  activity at 10 µM: 100%
[38]
  percent cell growth at 10 µM: 60.2%
[39]
  activity at 10 µM: 85.6%
[40]
  % cell growth at 10 µM: 103%
[41]
  % growth at 10 µM: 98.4%
[42]
  % growth of cells at 10 µM: 103%
[43]
  % growth at 10 µM: 113%
[44]
  % growth at 10 µM: 98%
[45]
  activity at 10 µM: 80.4%
[46]
  % growth at 10 µM: 121%
[47]
  % growth at 10 µM: 94%
[48]
  % cell growth at 10 µM: 103%
[49]
  % growth at 10 µM: 106%
[50]
  percent cell growth at 10 µM: 87.8%
[51]
  activity at 10 µM: 95%
[52]; Homo sapiens, 60 cell, 48 h, read-out: Mean % growth
  activity at 10 µM: 96.6%
[52]; one dose
  activity on all 60 cancer cell lines tested (in words): weak activity
[53]
  % growth at 10 µM: 131%
[54]
  % growth at 10 µM: 94%
[55]
  activity at 10 µM: 91.9%
[56]
  % growth at 10 µM: 94.4%
[57]
  % cell growth at 10 µM: 111%
[58]
  percent cell growth at 10 µM: 83%
[59]
  activity at 10 µM: 100%
